Data reported in ChEMBL document CHEMBL1201862, “PubChem BioAssay data set” (2004).
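Grown in 96-well plates, cells were treated for 48 hours with each compound at five concentrations. Insufficient inhibition: endpoint recorded as highest concentration tested. The concentration for 50% growth inhibition is given as GI50.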 The source made the active and inactive calls. Cut-off read from the data, not from the text of the source: active = GI50 up to about 1.1 µM and inactive = higher.

Legend:
Test in all cases: NCI anticancer screen, dose series, 48 h
786-0 = test system: 786-0
A498 = test system: A498
A549 = test system: A549
ACHN = test system: ACHN
CCRF-CEM = test system: CCRF-CEM
COLO 205 = test system: COLO 205
DLD-1 = test system: DLD-1
DMS-273 = test system: DMS-273
EKVX = test system: EKVX
HCC 2998 = test system: HCC 2998
HCT-116 = test system: HCT-116
HCT-15 = test system: HCT-15
HL-60 = test system: HL-60
HOP-62 = test system: HOP-62
HOP-92 = test system: HOP-92
HT-29 = test system: HT-29
IGROV-1 = test system: IGROV-1
KM-20L2 = test system: KM-20L2
KM12 = test system: KM12
LOX IMVI = test system: LOX IMVI
LXFL 529 = test system: LXFL 529
M14 = test system: M14
M19-MEL = test system: M19-MEL
MOLT-4 = test system: MOLT-4
Malme-3M = test system: Malme-3M
NCI-H226 = test system: NCI-H226
NCI-H23 = test system: NCI-H23
NCI-H460 = test system: NCI-H460
NCI-H522 = test system: NCI-H522
OVCAR-3 = test system: OVCAR-3
OVCAR-4 = test system: OVCAR-4
OVCAR-5 = test system: OVCAR-5
OVCAR-8 = test system: OVCAR-8
RPMI-8226 = test system: RPMI-8226
SF-268 = test system: SF-268
SF-295 = test system: SF-295
SF-539 = test system: SF-539
SK-MEL-28 = test system: SK-MEL-28
SK-MEL-2 = test system: SK-MEL-2
SK-MEL-5 = test system: SK-MEL-5
SK-OV-3 = test system: SK-OV-3
SN12C = test system: SN12C
SNB-19 = test system: SNB-19
SNB-75 = test system: SNB-75
SNB-78 = test system: SNB-78
SR = test system: SR
SW-620 = test system: SW-620
TK-10 = test system: TK-10
U-251 = test system: U-251
UACC-257 = test system: UACC-257
UACC-62 = test system: UACC-62
UO-31 = test system: UO-31
XF498 = test system: XF498
DMS-114 = test system: DMS-114
HOP-18 = test system: HOP-18
K562 = test system: K562
RXF 393 = test system: RXF 393

Q: For `CC(C)C(Sc1nc(-c2ccccc2)c(-c2ccccc2)[nH]1)C(=O)NNC(=S)Nc1ccccc1` (centres undefined), which GI50 (786-0) is on record?
A: 18.2 µM (inactive)

Q: What about the GI50 (A498) of the same compound?
A: 26 µM (inactive)

Q: And the GI50 (A549)?
A: 25.5 µM (inactive)

Q: What about the GI50 (ACHN) of the same compound?
A: 25.1 µM (inactive)

Q: And the GI50 (CCRF-CEM)?
A: 11.6 µM (inactive)

Q: And the GI50 (COLO 205)?
A: 18.5 µM (inactive)

Q: And the GI50 (DLD-1)?
A: 25.8 µM (inactive)

Q: What about the GI50 (DMS-273) of the same compound?
A: 17.7 µM (inactive)

Q: And the GI50 (EKVX)?
A: 23.8 µM (inactive)

Q: What about the GI50 (HCC 2998) of the same compound?
A: 42.1 nM (active)

Q: And the GI50 (HCT-116)?
A: 22.9 µM (inactive)

Q: What about the GI50 (HCT-15) of the same compound?
A: 17.9 µM

Q: What about the GI50 (HL-60) of the same compound?
A: 20.4 µM (inactive)

Q: What about the GI50 (HOP-62) of the same compound?
A: 24.1 µM (inactive)

Q: What about the GI50 (HOP-92) of the same compound?
A: 15.2 µM (inactive)

Q: What about the GI50 (HT-29) of the same compound?
A: 17.7 µM (inactive)

Q: And the GI50 (IGROV-1)?
A: 18.4 µM (inactive)

Q: And the GI50 (KM-20L2)?
A: 18.4 µM (inactive)

Q: And the GI50 (KM12)?
A: 14.7 µM (inactive)

Q: And the GI50 (LOX IMVI)?
A: 15.9 µM (inactive)

Q: What about the GI50 (LXFL 529) of the same compound?
A: 15.5 µM (inactive)

Q: And the GI50 (M14)?
A: 16.9 µM (inactive)

Q: What about the GI50 (M19-MEL) of the same compound?
A: 18.9 µM (inactive)

Q: And the GI50 (MOLT-4)?
A: 12.1 µM (inactive)

Q: What about the GI50 (Malme-3M) of the same compound?
A: 16.7 µM (inactive)

Q: And the GI50 (NCI-H226)?
A: 16.7 µM (inactive)

Q: And the GI50 (NCI-H23)?
A: 14.8 µM (inactive)

Q: What about the GI50 (NCI-H460) of the same compound?
A: 17.1 µM (inactive)

Q: And the GI50 (NCI-H522)?
A: 8.67 µM (inactive)

Q: What about the GI50 (OVCAR-3) of the same compound?
A: 13.1 µM (inactive)

Q: What about the GI50 (OVCAR-4) of the same compound?
A: 22.5 µM (inactive)

Q: What about the GI50 (OVCAR-5) of the same compound?
A: 16.7 µM (inactive)

Q: And the GI50 (OVCAR-8)?
A: 21.5 µM (inactive)

Q: And the GI50 (RPMI-8226)?
A: 10.9 µM (inactive)

Q: And the GI50 (SF-268)?
A: 24.5 µM (inactive)

Q: And the GI50 (SF-295)?
A: 16 µM (inactive)

Q: And the GI50 (SF-539)?
A: 21.4 µM (inactive)

Q: What about the GI50 (SK-MEL-28) of the same compound?
A: 22.7 µM (inactive)

Q: And the GI50 (SK-MEL-2)?
A: 19.2 µM (inactive)

Q: What about the GI50 (SK-MEL-5) of the same compound?
A: 12.8 µM (inactive)

Q: And the GI50 (SK-OV-3)?
A: 21.5 µM (inactive)

Q: What about the GI50 (SN12C) of the same compound?
A: 17.5 µM (inactive)

Q: And the GI50 (SNB-19)?
A: 41.9 µM (inactive)

Q: And the GI50 (SNB-75)?
A: 19.5 µM (inactive)

Q: And the GI50 (SNB-78)?
A: 25 µM (inactive)

Q: And the GI50 (SR)?
A: 5.61 µM (inactive)

Q: What about the GI50 (SW-620) of the same compound?
A: 15.3 µM (inactive)

Q: And the GI50 (TK-10)?
A: 29.3 µM (inactive)

Q: And the GI50 (U-251)?
A: 15 µM (inactive)

Q: And the GI50 (UACC-257)?
A: 16.9 µM (inactive)

Q: What about the GI50 (UACC-62) of the same compound?
A: 857 nM (active)

Q: And the GI50 (UO-31)?
A: 17.8 µM (inactive)

Q: What about the GI50 (XF498) of the same compound?
A: 18.4 µM (inactive)

Q: With `C/C(=N\NC(=S)N(C)C)c1ncc[nH]1` as the compound, how does the GI50 (786-0) read?
A: 2.18 µM (inactive)

Q: And the GI50 (A498)?
A: 3.94 µM (inactive)

Q: What about the GI50 (A549) of the same compound?
A: 3.38 µM (inactive)

Q: And the GI50 (ACHN)?
A: 2.45 µM (inactive)

Q: What about the GI50 (CCRF-CEM) of the same compound?
A: 2.82 µM (inactive)

Q: And the GI50 (DLD-1)?
A: 2.9 µM (inactive)

Q: What about the GI50 (DMS-114) of the same compound?
A: 3.13 µM (inactive)

Q: And the GI50 (EKVX)?
A: 4.51 µM (inactive)

Q: And the GI50 (HCC 2998)?
A: 3520 nM (inactive)

Q: What about the GI50 (HCT-116) of the same compound?
A: 3.56 µM (inactive)

Q: What about the GI50 (HCT-15) of the same compound?
A: 3.77 µM

Q: And the GI50 (HL-60)?
A: 2.63 µM (inactive)

Q: And the GI50 (HOP-18)?
A: 5.37 µM (inactive)

Q: And the GI50 (HOP-92)?
A: 2.47 µM (inactive)

Q: What about the GI50 (HT-29) of the same compound?
A: 5.73 µM (inactive)

Q: What about the GI50 (IGROV-1) of the same compound?
A: 2.78 µM (inactive)

Q: And the GI50 (K562)?
A: 2.59 µM (inactive)

Q: And the GI50 (KM-20L2)?
A: 3.57 µM (inactive)

Q: And the GI50 (KM12)?
A: 5.21 µM (inactive)

Q: What about the GI50 (LOX IMVI) of the same compound?
A: 3.08 µM (inactive)

Q: And the GI50 (LXFL 529)?
A: 2.98 µM (inactive)

Q: And the GI50 (M14)?
A: 2.31 µM (inactive)

Q: What about the GI50 (M19-MEL) of the same compound?
A: 5.6 µM (inactive)

Q: And the GI50 (MOLT-4)?
A: 3.06 µM (inactive)

Q: What about the GI50 (Malme-3M) of the same compound?
A: 3.36 µM (inactive)

Q: What about the GI50 (NCI-H23) of the same compound?
A: 2.1 µM (inactive)

Q: What about the GI50 (NCI-H460) of the same compound?
A: 3.24 µM (inactive)

Q: What about the GI50 (NCI-H522) of the same compound?
A: 2.62 µM (inactive)

Q: What about the GI50 (OVCAR-3) of the same compound?
A: 3.36 µM (inactive)

Q: And the GI50 (OVCAR-5)?
A: 2.55 µM (inactive)

Q: And the GI50 (OVCAR-8)?
A: 3.94 µM (inactive)

Q: What about the GI50 (RPMI-8226) of the same compound?
A: 4.2 µM (inactive)

Q: What about the GI50 (RXF 393) of the same compound?
A: 6 µM (inactive)

Q: And the GI50 (SF-268)?
A: 3.56 µM (inactive)

Q: What about the GI50 (SF-295) of the same compound?
A: 4.28 µM (inactive)

Q: What about the GI50 (SF-539) of the same compound?
A: 2.77 µM (inactive)

Q: And the GI50 (SK-MEL-28)?
A: 7.48 µM (inactive)

Q: What about the GI50 (SK-MEL-2) of the same compound?
A: 3.69 µM (inactive)

Q: What about the GI50 (SK-MEL-5) of the same compound?
A: 4.46 µM (inactive)

Q: What about the GI50 (SK-OV-3) of the same compound?
A: 3.87 µM (inactive)

Q: And the GI50 (SN12C)?
A: 3.95 µM (inactive)

Q: What about the GI50 (SNB-19) of the same compound?
A: 4.42 µM (inactive)

Q: And the GI50 (SNB-75)?
A: 7.57 µM (inactive)

Q: And the GI50 (SR)?
A: 2.81 µM (inactive)

Q: And the GI50 (SW-620)?
A: 4.59 µM (inactive)

Q: What about the GI50 (TK-10) of the same compound?
A: 13.3 µM (inactive)

Q: And the GI50 (U-251)?
A: 2.23 µM (inactive)

Q: And the GI50 (UACC-257)?
A: 2.92 µM (inactive)

Q: And the GI50 (UACC-62)?
A: 2510 nM (inactive)

Q: And the GI50 (UO-31)?
A: 2.1 µM (inactive)

Q: And the GI50 (XF498)?
A: 4.73 µM (inactive)
